# Assay results: PubChem BioAssay AID2060492 (Molecular Pharmacology Branch, DTP, NCI, 2025)
# Tested on: 695427-040-R-J1-PDC complex spheroids, viability percent T/C
# Experiment: Anticancer human tumor 695427-040-R-J1-PDC patient-derived colon adenocarcinoma cell line growth inhibition [GQUAD]
# Conditions: for IC50: curve of first compound; for viability, T/C: stronger effect = lower value
# Procedure, shortened: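 Multi-cell-type spheroids of tumor cells with HUVEC and mesenchymal stem cells, treated with drug combinations. Concentrations descend in half-log steps from near clinical Cmax, or from 10 microM where Cmax is unknown; viability read-out.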
# [1] = second compound 0.0316 µM, first compound 0.0316 µM
# [2] = second compound 0.0316 µM, first compound 0.316 µM
# [3] = second compound 0.1 µM, first compound 0.0316 µM
# [4] = second compound 0.1 µM, first compound 0.316 µM
# [5] = second compound 0.316 µM, first compound 0.0316 µM
# [6] = second compound 0.316 µM, first compound 0.316 µM
# [7] = second compound 1 µM, first compound 0.0316 µM
# [8] = second compound 1 µM, first compound 0.316 µM
# [9] = second compound 3.16 µM, first compound 0.0316 µM
# [10] = second compound 3.16 µM, first compound 0.316 µM
# [11] = second compound 10 µM, first compound 0.0316 µM
# [12] = second compound 10 µM, first compound 0.316 µM
# 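Note: spheroids exposed to compounds for seven days before readout.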
structure (smiles),measurement,setting,value
C=CC(=O)N1CCN(c2nc(=O)n(-c3c(C)ccnc3C(C)C)c3nc(-c4c(O)cccc4F)c(F)cc23)C(C)C1 (centres undefined) + Cc1[nH]c2ccc(F)cc2c1-c1nc2c3cccnc3c3ncccc3c2[nH]1,IC50,second compound 0.0316 µM,> 10000 nM
same,IC50,second compound 0.1 µM,> 10000 nM
same,IC50,second compound 0.316 µM,> 10000 nM
same,IC50,second compound 1 µM,> 10000 nM
same,IC50,second compound 3.16 µM,> 10000 nM
same,IC50,second compound 10 µM,> 10000 nM
same,"viability, T/C",[1],108%
same,"viability, T/C","second compound 0.0316 µM, first compound 0.1 µM",86%
same,"viability, T/C",[2],107%
same,"viability, T/C","second compound 0.0316 µM, first compound 1 µM",83%
same,"viability, T/C","second compound 0.0316 µM, first compound 3.16 µM",93.2%
same,"viability, T/C","second compound 0.0316 µM, first compound 10 µM",90.2%
same,"viability, T/C",[3],101%
same,"viability, T/C","second compound 0.1 µM, first compound 0.1 µM",87.6%
same,"viability, T/C",[4],99.9%
same,"viability, T/C","second compound 0.1 µM, first compound 1 µM",67.8%
same,"viability, T/C","second compound 0.1 µM, first compound 3.16 µM",104%
same,"viability, T/C","second compound 0.1 µM, first compound 10 µM",106%
same,"viability, T/C",[5],102%
same,"viability, T/C","second compound 0.316 µM, first compound 0.1 µM",95.7%
same,"viability, T/C",[6],84.2%
same,"viability, T/C","second compound 0.316 µM, first compound 1 µM",94.8%
same,"viability, T/C","second compound 0.316 µM, first compound 3.16 µM",86.9%
same,"viability, T/C","second compound 0.316 µM, first compound 10 µM",92.8%
same,"viability, T/C",[7],80.5%
same,"viability, T/C","second compound 1 µM, first compound 0.1 µM",90%
same,"viability, T/C",[8],79.6%
same,"viability, T/C","second compound 1 µM, first compound 1 µM",101%
same,"viability, T/C","second compound 1 µM, first compound 3.16 µM",104%
same,"viability, T/C","second compound 1 µM, first compound 10 µM",76.8%
same,"viability, T/C",[9],69%
same,"viability, T/C","second compound 3.16 µM, first compound 0.1 µM",77.1%
same,"viability, T/C",[10],81.5%
same,"viability, T/C","second compound 3.16 µM, first compound 1 µM",86.5%
same,"viability, T/C","second compound 3.16 µM, first compound 3.16 µM",90.3%
same,"viability, T/C","second compound 3.16 µM, first compound 10 µM",86.8%
same,"viability, T/C",[11],73.6%
same,"viability, T/C","second compound 10 µM, first compound 0.1 µM",81.2%
same,"viability, T/C",[12],86.2%
same,"viability, T/C","second compound 10 µM, first compound 1 µM",82.7%
same,"viability, T/C","second compound 10 µM, first compound 3.16 µM",81.8%
same,"viability, T/C","second compound 10 µM, first compound 10 µM",69.1%
CCc1c2c(nc3ccc(O)cc13)-c1cc3c(c(=O)n1C2)COC(=O)[C@]3(O)CC + Cc1[nH]c2ccc(F)cc2c1-c1nc2c3cccnc3c3ncccc3c2[nH]1,IC50,second compound 0.0316 µM,168 nM
same,IC50,second compound 0.1 µM,161 nM
same,IC50,second compound 0.316 µM,112 nM
same,IC50,second compound 1 µM,106 nM
same,IC50,second compound 3.16 µM,82.4 nM
same,IC50,second compound 10 µM,106 nM
same,"viability, T/C","second compound 0.0316 µM, first compound 0.000999 µM",95.4%
same,"viability, T/C","second compound 0.0316 µM, first compound 0.00316 µM",74%
same,"viability, T/C","second compound 0.0316 µM, first compound 0.00999 µM",87.9%
same,"viability, T/C",[1],57.8%
same,"viability, T/C","second compound 0.0316 µM, first compound 0.0999 µM",62%
same,"viability, T/C",[2],40.8%
same,"viability, T/C","second compound 0.1 µM, first compound 0.000999 µM",93.7%
same,"viability, T/C","second compound 0.1 µM, first compound 0.00316 µM",71.6%
same,"viability, T/C","second compound 0.1 µM, first compound 0.00999 µM",80.2%
same,"viability, T/C",[3],57.7%
same,"viability, T/C","second compound 0.1 µM, first compound 0.0999 µM",57.6%
same,"viability, T/C",[4],43%
same,"viability, T/C","second compound 0.316 µM, first compound 0.000999 µM",99.5%
same,"viability, T/C","second compound 0.316 µM, first compound 0.00316 µM",64.2%
same,"viability, T/C","second compound 0.316 µM, first compound 0.00999 µM",82.2%
same,"viability, T/C",[5],63.2%
same,"viability, T/C","second compound 0.316 µM, first compound 0.0999 µM",56.1%
same,"viability, T/C",[6],34.5%
same,"viability, T/C","second compound 1 µM, first compound 0.000999 µM",67.7%
same,"viability, T/C","second compound 1 µM, first compound 0.00316 µM",85.8%
same,"viability, T/C","second compound 1 µM, first compound 0.00999 µM",82%
same,"viability, T/C",[7],64.6%
same,"viability, T/C","second compound 1 µM, first compound 0.0999 µM",52.5%
same,"viability, T/C",[8],37.6%
same,"viability, T/C","second compound 3.16 µM, first compound 0.000999 µM",72%
same,"viability, T/C","second compound 3.16 µM, first compound 0.00316 µM",74.5%
same,"viability, T/C","second compound 3.16 µM, first compound 0.00999 µM",63.5%
same,"viability, T/C",[9],59.5%
same,"viability, T/C","second compound 3.16 µM, first compound 0.0999 µM",48.7%
same,"viability, T/C",[10],33.2%
same,"viability, T/C","second compound 10 µM, first compound 0.000999 µM",71.9%
same,"viability, T/C","second compound 10 µM, first compound 0.00316 µM",72.2%
same,"viability, T/C","second compound 10 µM, first compound 0.00999 µM",66.4%
same,"viability, T/C",[11],60.8%
same,"viability, T/C","second compound 10 µM, first compound 0.0999 µM",49.8%
same,"viability, T/C",[12],37.4%
